Assay results from the supplement of paper PMC13207355.
Structures can show the parent of a compound that is named as a salt.

Key:
Conditions in all cases: exposure time: 72 h
E34 [1] = patient-derived glioblastoma stem cells of proneural subtype; assay: surviving fraction (nuclei count normalised to DMSO); higher = more cells surviving (less toxic)
E57 [2] = patient-derived glioblastoma stem cells of mesenchymal subtype; assay: as above
E31 [3] = patient-derived glioblastoma stem cells of proneural subtype; assay: as above
E28 [4] = patient-derived glioblastoma stem cells of classical subtype; assay: as above
E21 [5] = patient-derived glioblastoma stem cells of mesenchymal subtype; assay: as above
FT3469 [6] = normal neural stem cell line; assay: as above
E13 [7] = patient-derived glioblastoma stem cells of classical subtype; assay: as above
E34 [8] = assay: phenotypic distance (Euclidean, principal components) from DMSO controls (arbitrary units); higher = stronger morphological change
E57 [9] = assay: as above
E31 [10] = assay: as above
E28 [11] = assay: as above
E21 [12] = assay: as above
FT3469 [13] = assay: as above
E13 [14] = assay: as above
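Throughout, for phenotypic distance (Euclidean, principal components) from DMSO controls: cell Painting imaging in 384-well plates, CellProfiler features reduced to at least 20 principal components, Euclidean distance versus same-plate DMSO vehicle wells (0.1% v/v), median over six images per well.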
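Throughout, for surviving fraction (nuclei count normalised to DMSO): nuclei counted by high-content imaging of Hoechst-stained cells in laminin-coated 384-well plates, relative to 0.1% DMSO vehicle wells, with staurosporine as cell-death control.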

CN(C)CCN(Cc1ccc(Cl)cc1)c1ccccn1 [Chloropyramine hydrochloride]
Conditions	phenotypic distance	surviving fraction
E13 [7], 4.1 nM	–	0.918
E13 [7], 12.3 nM	–	0.933
E13 [7], 37 nM	–	0.988
E13 [7], 111.1 nM	–	0.881
E13 [7], 333.3 nM	–	0.847
E13 [7], 1000 nM	–	0.953
E13 [7], 3000 nM	–	0.933
E13 [14], 4.1 nM	0.601	–
E13 [14], 12.3 nM	0.447	–
E13 [14], 37 nM	0.683	–
E13 [14], 111.1 nM	0.455	–
E13 [14], 333.3 nM	0.745	–
E13 [14], 1000 nM	1.13	–
E13 [14], 3000 nM	0.879	–
E21 [5], 4.1 nM	–	0.942
E21 [5], 12.3 nM	–	1.03
E21 [5], 37 nM	–	0.87
E21 [5], 111.1 nM	–	0.922
E21 [5], 333.3 nM	–	0.993
E21 [5], 1000 nM	–	1.12
E21 [5], 3000 nM	–	1.08
E21 [12], 4.1 nM	0.655	–
E21 [12], 12.3 nM	0.862	–
E21 [12], 37 nM	0.953	–
E21 [12], 111.1 nM	0.778	–
E21 [12], 333.3 nM	0.678	–
E21 [12], 1000 nM	1.38	–
E21 [12], 3000 nM	1.62	–
E28 [4], 4.1 nM	–	1.1
E28 [4], 12.3 nM	–	0.995
E28 [4], 37 nM	–	1.11
E28 [4], 111.1 nM	–	0.91
E28 [4], 333.3 nM	–	1.03
E28 [4], 1000 nM	–	1.19
E28 [4], 3000 nM	–	1.13
E28 [11], 4.1 nM	1.02	–
E28 [11], 12.3 nM	1.04	–
E28 [11], 37 nM	0.979	–
E28 [11], 111.1 nM	0.796	–
E28 [11], 333.3 nM	1.02	–
E28 [11], 1000 nM	0.889	–
E28 [11], 3000 nM	0.936	–
E31 [3], 4.1 nM	–	0.968
E31 [3], 12.3 nM	–	0.91
E31 [3], 37 nM	–	0.853
E31 [3], 111.1 nM	–	0.919
E31 [3], 333.3 nM	–	0.897
E31 [3], 1000 nM	–	0.946
E31 [3], 3000 nM	–	0.856
E31 [10], 4.1 nM	1.06	–
E31 [10], 12.3 nM	0.615	–
E31 [10], 37 nM	0.841	–
E31 [10], 111.1 nM	0.689	–
E31 [10], 333.3 nM	0.862	–
E31 [10], 1000 nM	0.815	–
E31 [10], 3000 nM	0.985	–
E34 [1], 4.1 nM	–	0.981
E34 [1], 12.3 nM	–	0.964
E34 [1], 37 nM	–	1.06
E34 [1], 111.1 nM	–	0.866
E34 [1], 333.3 nM	–	0.942
E34 [1], 1000 nM	–	1.14
E34 [1], 3000 nM	–	1
E34 [8], 4.1 nM	1.29	–
E34 [8], 12.3 nM	1.02	–
E34 [8], 37 nM	1.15	–
E34 [8], 111.1 nM	2.53	–
E34 [8], 333.3 nM	0.82	–
E34 [8], 1000 nM	0.757	–
E34 [8], 3000 nM	1.2	–
E57 [2], 4.1 nM	–	0.916
E57 [2], 12.3 nM	–	0.978
E57 [2], 37 nM	–	0.96
E57 [2], 111.1 nM	–	0.936
E57 [2], 333.3 nM	–	0.986
E57 [2], 1000 nM	–	1.02
E57 [2], 3000 nM	–	1.03
E57 [9], 4.1 nM	0.61	–
E57 [9], 12.3 nM	0.445	–
E57 [9], 37 nM	0.59	–
E57 [9], 111.1 nM	0.607	–
E57 [9], 333.3 nM	0.699	–
E57 [9], 1000 nM	0.663	–
E57 [9], 3000 nM	0.75	–
FT3469 [6], 4.1 nM	–	0.774
FT3469 [6], 12.3 nM	–	1.01
FT3469 [6], 37 nM	–	0.947
FT3469 [6], 111.1 nM	–	0.867
FT3469 [6], 333.3 nM	–	0.758
FT3469 [6], 1000 nM	–	0.878
FT3469 [6], 3000 nM	–	0.928
FT3469 [13], 4.1 nM	1.06	–
FT3469 [13], 12.3 nM	0.715	–
FT3469 [13], 37 nM	0.697	–
FT3469 [13], 111.1 nM	0.656	–
FT3469 [13], 333.3 nM	0.847	–
FT3469 [13], 1000 nM	0.895	–
FT3469 [13], 3000 nM	0.975	–

CC(C)C(=O)OCC(=O)[C@@]12O[C@H](C3CCCCC3)O[C@@H]1C[C@H]1[C@@H]3CCC4=CC(=O)C=C[C@]4(C)[C@H]3[C@@H](O)C[C@@]12C [Ciclesonide]
Conditions	phenotypic distance	surviving fraction
E13 [7], 4.1 nM	–	0.929
E13 [7], 12.3 nM	–	0.899
E13 [7], 37 nM	–	0.833
E13 [7], 111.1 nM	–	0.908
E13 [7], 333.3 nM	–	0.889
E13 [7], 1000 nM	–	0.796
E13 [7], 3000 nM	–	0.233
E13 [14], 4.1 nM	0.991	–
E13 [14], 12.3 nM	0.745	–
E13 [14], 37 nM	1.05	–
E13 [14], 111.1 nM	1.04	–
E13 [14], 333.3 nM	0.74	–
E13 [14], 1000 nM	1.02	–
E13 [14], 3000 nM	3.25	–
E21 [5], 4.1 nM	–	1.24
E21 [5], 12.3 nM	–	1.23
E21 [5], 37 nM	–	1.07
E21 [5], 111.1 nM	–	1.17
E21 [5], 333.3 nM	–	1.19
E21 [5], 1000 nM	–	1.24
E21 [5], 3000 nM	–	0.893
E21 [12], 4.1 nM	1.83	–
E21 [12], 12.3 nM	2.04	–
E21 [12], 37 nM	1.74	–
E21 [12], 111.1 nM	2.02	–
E21 [12], 333.3 nM	2.07	–
E21 [12], 1000 nM	1.89	–
E21 [12], 3000 nM	2.4	–
E28 [4], 4.1 nM	–	1.11
E28 [4], 12.3 nM	–	1
E28 [4], 37 nM	–	1.26
E28 [4], 111.1 nM	–	1.07
E28 [4], 333.3 nM	–	0.894
E28 [4], 1000 nM	–	1.05
E28 [4], 3000 nM	–	0.615
E28 [11], 4.1 nM	1.16	–
E28 [11], 12.3 nM	0.863	–
E28 [11], 37 nM	1.07	–
E28 [11], 111.1 nM	0.708	–
E28 [11], 333.3 nM	1	–
E28 [11], 1000 nM	0.827	–
E28 [11], 3000 nM	2.3	–
E31 [3], 4.1 nM	–	1.24
E31 [3], 12.3 nM	–	1.11
E31 [3], 37 nM	–	1.33
E31 [3], 111.1 nM	–	1.47
E31 [3], 333.3 nM	–	1.25
E31 [3], 1000 nM	–	1.27
E31 [3], 3000 nM	–	0.766
E31 [10], 4.1 nM	2.4	–
E31 [10], 12.3 nM	2.62	–
E31 [10], 37 nM	3	–
E31 [10], 111.1 nM	3.03	–
E31 [10], 333.3 nM	3.06	–
E31 [10], 1000 nM	3.27	–
E31 [10], 3000 nM	2.27	–
E34 [1], 4.1 nM	–	1.04
E34 [1], 12.3 nM	–	0.897
E34 [1], 37 nM	–	1.13
E34 [1], 111.1 nM	–	1.02
E34 [1], 333.3 nM	–	1.08
E34 [1], 1000 nM	–	1.06
E34 [1], 3000 nM	–	0.589
E34 [8], 4.1 nM	0.88	–
E34 [8], 12.3 nM	0.851	–
E34 [8], 37 nM	1.45	–
E34 [8], 111.1 nM	1.77	–
E34 [8], 333.3 nM	1.12	–
E34 [8], 1000 nM	0.771	–
E34 [8], 3000 nM	1.4	–
E57 [2], 4.1 nM	–	1.08
E57 [2], 12.3 nM	–	1.18
E57 [2], 37 nM	–	1.1
E57 [2], 111.1 nM	–	1.32
E57 [2], 333.3 nM	–	1.16
E57 [2], 1000 nM	–	1.19
E57 [2], 3000 nM	–	0.756
E57 [9], 4.1 nM	1.77	–
E57 [9], 12.3 nM	2.02	–
E57 [9], 37 nM	2.36	–
E57 [9], 111.1 nM	2.51	–
E57 [9], 333.3 nM	2.31	–
E57 [9], 1000 nM	2.44	–
E57 [9], 3000 nM	2.49	–
FT3469 [6], 4.1 nM	–	1.1
FT3469 [6], 12.3 nM	–	1.38
FT3469 [6], 37 nM	–	1.15
FT3469 [6], 111.1 nM	–	1.04
FT3469 [6], 333.3 nM	–	1.03
FT3469 [6], 1000 nM	–	1.1
FT3469 [6], 3000 nM	–	0.803
FT3469 [13], 4.1 nM	1.45	–
FT3469 [13], 12.3 nM	1.86	–
FT3469 [13], 37 nM	1.15	–
FT3469 [13], 111.1 nM	1.37	–
FT3469 [13], 333.3 nM	1.4	–
FT3469 [13], 1000 nM	0.997	–
FT3469 [13], 3000 nM	0.762	–
